One data set deals with BT-549 cells. The experiment in a line: Detection of cell proliferation activity by CCK8 method (BT-549). The class given is cell-based. The note with it: Homo sapiens, CCK8, 96 h. Summed up:
(§1)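 Cells seeded at 1500/well (BT-549, 1640 medium) or 2000/well (HT-29, HCT-116, McCoy's 5A), treated next day with 9-point 1:5 dilutions from 10 μM final, triplicate, for 96 h. CCK8 read at 450 nm after 2 h at 37 °C; inhibition versus DMSO, IC50 by non-linear regression.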

In data set [1] the test system is HCT-116 cells. The experiment in a line: Mitotic index analysis, pH3 expression in HCT-116 cells. It counts as cell-based. As to conditions: Homo sapiens, 24 h treatment. Summed up: (§2)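 HCT-116 or HT-29 cells treated 24 h with 9-point 3-fold dilutions from 10 μM, then fixed and immunostained for phospho-histone H3 with DRAQ5 counterstain. Near-infrared fluorescence read at 700/800 nm; pH3 expressed as % of DMSO control and EC50 fitted.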

Another data set has as its system OVCAR3 cells. Kind of data set: Detection of OVCAR3 cell proliferation activity by CTG method. As to conditions: Homo sapiens, OVCAR-3, 168 h, CellTiter-Glo, 7 days. It counts as cell-based. Summed up:
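OVCAR3 cells (2000/well) were exposed for 7 days to compound at 10 μM to 0.026 nM, 5-fold steps, in duplicate. Viability was read as CellTiter-Glo luminescence. A plate read on the day of compound addition served as the Max value for IC50 derivation.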
(In general: ATP-based viability assays read luminescence as a measure of living cells.)

The subject of data set [2] is HCT-116 cells. The experiment in a line: Detection of cell proliferation activity by CCK8 method (HCT-116). The class given is cell-based. The note with it: Homo sapiens, CCK8, 96 h. Summed up:
as §1
Background: Tetrazolium assays rely on reduction of a dye to a coloured formazan, in cell work by metabolically active cells.

Data set [3] deals with HT-29 cells. Kind of data set: Mitotic index analysis, pH3 expression in HT-29 cells. It counts as cell-based, human. As to conditions: Homo sapiens, 24 h treatment. In outline: as §2
In data set [4] the test system is HT-29 cells. Kind of data set: Detection of cell proliferation activity by CCK8 method (HT-29). The class given is cell-based, human. The note with it: Homo sapiens, CCK8, 96 h. In outline: as §1
Data set [5] in a line: Pharmacokinetic test in rats. The note with it: SD rats, PO @5mpk. It counts as in vivo. The procedure:
In this example, the pharmacokinetic behavior of the compounds after intravenous injection (IV) and intragastric (PO) administration in SD rats was tested.
On the day of administration, rats were weighed for actual body weight and the administration volume was calculated. Each compound was tested in two groups with 3 rats in each group; one group was subjected to administration by single intravenous injection, and the other group was subjected to single intragastric administration. Whole blood samples were collected via the jugular vein at prescribed time points (0.25 h, 0.5 h, 1 h, 2 h, 4 h, 8 h, and 24 h after administration). After blood sample collection, the samples were immediately transferred to labeled commercial sample tubes containing K2-EDTA (0.85-1.15 mg), followed by centrifugation (3200×g, 4° C., 10 min) and plasma collection. The plasma was transferred to a pre-cooled centrifuge tube, frozen in dry ice, and then stored in an ultra-low temperature freezer at −60° C. or lower until the LC-MS/MS analysis.
Plasma concentrations were determined by the LC-MS/MS method. Plasma drug concentration data for the compounds were processed using a non-compartmental model in the WinNonlin Version 6.3 (Pharsight, Mountain View, CA) pharmacokinetic software. The relevant pharmacokinetic parameters were calculated by a linear-log trapezoidal method.

For the next data set, the target named is KIF18A (Homo sapiens (Human), UniProt Q8NI77). The experiment in a line: KIF18A enzymatic activity inhibition, ADP-Glo kit. The class given is biochemical. As to conditions: 4 nM KIF18A, 30 μM ATP. The procedure: In this experiment, an ADP-Glo kit was used to detect the inhibitory activity of the compounds against KIF18A. Each compound was prepared into a 10 mM stock solution with DMSO, which was then diluted at 1:5 to obtain 9 gradients with the initial final concentration set at 10 μM. Meanwhile, a control group and a blank group were also set up. The reaction buffer consisted of 15 mM Tris (pH 7.5), 10 mM MgCl2, and 0.01% Pluronic F-68. 4 nM KIF18A (1467) and the test compound were added to a 384-well plate and incubated at 37° C. for 20 mm. Then, 30 μM ATP was added to initiate the enzymatic reaction, and the plate was incubated at room temperature for 15 min. Finally, the ADP-Glo reagent was added to detect the luminescence intensity, where the luminescence intensity is directly proportional to the ADP content. Inhibition rate (%)=[…]. Sample signal is the value of the compound group, and DMSO signal is the value of the DMSO control group. Then, the inhibition rate at each concentration was calculated, and the IC50 was determined by fitting using the GraphPadPrism 7.0 software.
Chain of KIF18A (Q8NI77 1-467): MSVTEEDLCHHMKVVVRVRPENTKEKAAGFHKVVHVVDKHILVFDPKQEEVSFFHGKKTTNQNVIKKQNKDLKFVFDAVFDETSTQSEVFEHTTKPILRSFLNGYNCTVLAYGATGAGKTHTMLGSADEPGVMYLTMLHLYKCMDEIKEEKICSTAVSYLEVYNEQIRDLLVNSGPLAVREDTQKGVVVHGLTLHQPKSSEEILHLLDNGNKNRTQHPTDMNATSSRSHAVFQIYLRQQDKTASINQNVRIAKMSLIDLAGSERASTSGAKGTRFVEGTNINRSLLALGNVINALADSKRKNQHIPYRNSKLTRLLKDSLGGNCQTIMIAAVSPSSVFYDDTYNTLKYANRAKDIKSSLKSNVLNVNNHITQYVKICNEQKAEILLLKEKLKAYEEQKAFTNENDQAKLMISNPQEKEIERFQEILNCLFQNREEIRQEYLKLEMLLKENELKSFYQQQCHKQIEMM

A word on the IC50: it is the concentration needed to halve the response being measured. A low value points to greater potency. By EC50 is commonly meant the concentration giving half of the maximal effect. The AUC is concentration integrated over time. As a reminder, the Cmax is the peak of the concentration-time curve. `O=C(Nc1cn2ccnc2c(N2CCCCC2)n1)c1ccc(NS(=O)(=O)CCO)cc1N1CCC2(CC1)CC2` [Compound 12]: the IC50 was 34 nM with BT-549 cells; 15 nM with OVCAR3 cells; greater than 10000 nM in the data set with HCT-116 cells [2]; 73 nM in the data set on HT-29 cells [4]; 10.2 nM at KIF18A. The EC50 in the data set with HCT-116 cells [1] was greater than 10000 nM; in the data set on HT-29 cells [3] it was 51 nM. Moreover, the F in data set [5] was 18.3%. The AUC in data set [5] (rat, plasma, 5 mg/kg) came to 2.41 µM·h. The highest level in data set [5] (rat, plasma, 5 mg/kg) (Cmax) was 526 nM. Besides, the half-life in data set [5] (rat, plasma, 5 mg/kg, read-out: t½ (converted)) was 2.6 h.
